Experimental data: PubChem BioAssay AID270 (DTP/NCI, 2004)
Values joined by “and” are separate entries in the source; they are usually repeats but may differ in a detail not shown here. Equal entries are not always repeated. Results filed as inconclusive are left out.

Test system: BDF1 mice, s.c. Lewis lung carcinoma, T/C %
Assay: NCI In Vivo Anticancer Drug Screen. Data for tumor model Lewis Lung Carcinoma (subcutaneous) in B6D2F1 (BDF1) mice
Method in brief: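 Antitumor effect in vivo is scored from survival or tumor burden, reported as treated relative to vehicle controls.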

[1] = endpoint: median survival time, dose: 1.25 mg/kg/injection, schedule: Q01DX009 (ip), vehicle: Klucel (hydroxypropylcellulose) (HPC), higher = longer survival
[2] = endpoint: median survival time, dose: 2.5 mg/kg/injection, schedule: Q01DX009 (ip), vehicle: Klucel (hydroxypropylcellulose) (HPC), higher = longer survival
[3] = endpoint: median survival time, dose: 5.0 mg/kg/injection, schedule: Q01DX009 (ip), vehicle: Klucel (hydroxypropylcellulose) (HPC), higher = longer survival
[4] = endpoint: median survival time, dose: 0.63 mg/kg/injection, schedule: Q01DX009 (ip), vehicle: Klucel (hydroxypropylcellulose) (HPC), higher = longer survival

COC(C(=O)C(O)C(C)O)C1Cc2cc3cc(OC4CC(OC(C)=O)C(OC5CC(O)C(OC)C(C)O5)C(C)O4)cc(O)c3c(O)c2C(=O)C1OC1CC(OC2CC(OC3CC(C)(O)C(OC(=O)C(C)C)C(C)O3)C(O)C(C)O2)C(O)C(C)O1 (centres undefined)
T/C (endpoint: median survival time, dose: 0.5 mg/kg/injection, schedule: Q01DX009 (ip), vehicle: saline with Tween-80, higher = longer survival): 97 % of control
T/C (endpoint: median survival time, dose: 2.0 mg/kg/injection, schedule: Q01DX009 (ip), vehicle: saline with Tween-80, higher = longer survival): 94 % of control

O=c1ccc2ccccc2o1
T/C (endpoint: mean tumor weight, dose: 110.0 mg/kg/injection, schedule: Q01DX011 (ip), vehicle: carboxymethylcellulose (CMC), higher = larger tumour): 57 % of control
T/C (endpoint: mean tumor weight, dose: 165.0 mg/kg/injection, schedule: Q01DX011 (ip), vehicle: carboxymethylcellulose (CMC), higher = larger tumour): 63 % of control

CN1C(=O)C=CC1=O
T/C (endpoint: median survival time, dose: 0.5 mg/kg/injection, schedule: Q02DX009 (ip), vehicle: saline, higher = longer survival): 113 % of control
T/C (endpoint: median survival time, dose: 1.0 mg/kg/injection, schedule: Q02DX009 (ip), vehicle: saline, higher = longer survival): 103 % of control
T/C (endpoint: median survival time, dose: 2.0 mg/kg/injection, schedule: Q02DX009 (ip), vehicle: saline, higher = longer survival): 100 % of control
T/C (endpoint: median survival time, dose: 4.0 mg/kg/injection, schedule: Q02DX009 (ip), vehicle: saline, higher = longer survival): 94 % of control

NC1(C(=O)O)CCCC1
T/C (endpoint: mean tumor weight, dose: 30.0 mg/kg/injection, schedule: Q01DX011 (ip), vehicle: saline, higher = larger tumour): 38 % of control and 61 % of control
T/C (endpoint: mean tumor weight, dose: 60.0 mg/kg/injection, schedule: Q01DX011 (ip), vehicle: saline, higher = larger tumour): 25 % of control and 30 % of control
T/C (endpoint: mean tumor weight, dose: 120.0 mg/kg/injection, schedule: Q01DX011 (ip), vehicle: saline, higher = larger tumour): 8 % of control
T/C (endpoint: median survival time, dose: 1.6 mg/kg/injection, schedule: Q01DX009 (ip), vehicle: carboxymethylcellulose (CMC), higher = longer survival): 96 % of control
T/C (endpoint: median survival time, dose: 6.25 mg/kg/injection, schedule: Q01DX009 (ip), vehicle: carboxymethylcellulose (CMC), higher = longer survival): 123 % of control

CN1CC(=O)NC1=O
T/C (endpoint: mean tumor weight, dose: 2000.0 mg/kg/injection, schedule: Q01DX011 (ip), vehicle: saline, higher = larger tumour): 99 % of control and 124 % of control

COc1cc2ccc3c4cc5c(cc4c[n+](C)c3c2cc1OC)OCO5
T/C [1]: 108 % of control
T/C [2]: 92 % of control
T/C [3]: 102 % of control
T/C (endpoint: median survival time, dose: 10.0 mg/kg/injection, schedule: Q01DX009 (ip), vehicle: Klucel (hydroxypropylcellulose) (HPC), higher = longer survival): 99 % of control

NC(=S)N/N=C/c1cc(-c2cccc(N)c2)ccn1
T/C (endpoint: median survival time, dose: 6.25 mg/kg/injection, schedule: Q01DX009 (ip), vehicle: saline with Tween-80, higher = longer survival): 106 % of control
T/C (endpoint: median survival time, dose: 12.5 mg/kg/injection, schedule: Q01DX009 (ip), vehicle: saline with Tween-80, higher = longer survival): 102 % of control and 106 % of control
T/C (endpoint: median survival time, dose: 25.0 mg/kg/injection, schedule: Q01DX009 (ip), vehicle: saline with Tween-80, higher = longer survival): 117 % of control and 119 % of control
T/C (endpoint: median survival time, dose: 50.0 mg/kg/injection, schedule: Q01DX009 (ip), vehicle: saline with Tween-80, higher = longer survival): 87 % of control and 123 % of control

CCCCCCCC(=O)O[C@H]1[C@H]2[C@@H](CC1(C)C)C(=O)[C@]13O[C@H]1C(=O)[C@]1(CO1)[C@]23C
T/C (endpoint: median survival time, dose: 0.31 mg/kg/injection, schedule: Q01DX009 (ip), vehicle: Klucel (hydroxypropylcellulose) (HPC), higher = longer survival): 89 % of control
T/C [4]: 90 % of control
T/C [1]: 89 % of control
T/C [2]: 89 % of control

CCOc1ccc(Nc2ncnc3nc[nH]c23)cc1CN(CCCl)CCCl
T/C (endpoint: mean tumor weight, dose: 1.2 mg/kg/injection, schedule: Q01DX011 (ip), vehicle: other, higher = larger tumour): 54 % of control
T/C (endpoint: mean tumor weight, dose: 2.3 mg/kg/injection, schedule: Q01DX011 (ip), vehicle: other, higher = larger tumour): 46 % of control

FC(F)(F)c1cc(CN(CCCl)CCCl)cc(C(F)(F)F)c1
T/C (endpoint: median survival time, dose: 12.5 mg/kg/injection, schedule: Q01DX009 (ip), vehicle: Klucel (hydroxypropylcellulose) (HPC), higher = longer survival): 90 % of control
T/C (endpoint: median survival time, dose: 50.0 mg/kg/injection, schedule: Q01DX009 (ip), vehicle: Klucel (hydroxypropylcellulose) (HPC), higher = longer survival): 90 % of control

COC(C(=O)C(O)C(C)O)C1Cc2cc3cc(OC4CC(OC5CC(O)C(O)C(C)O5)C(O)C(C)O4)c(C)c(O)c3c(O)c2C(=O)C1OC1CC(OC2CC(O)C(OC3CC(C)(O)C(O)C(C)O3)C(C)O2)C(O)C(C)O1 (centres undefined)
T/C (endpoint: median survival time, dose: 0.06 mg/kg/injection, schedule: Q01DX009 (ip), vehicle: saline, higher = longer survival): 93 % of control
T/C (endpoint: median survival time, dose: 0.13 mg/kg/injection, schedule: Q01DX009 (ip), vehicle: saline, higher = longer survival): 93 % of control and 123 % of control
T/C (endpoint: median survival time, dose: 0.25 mg/kg/injection, schedule: Q01DX009 (ip), vehicle: saline, higher = longer survival): 96 % of control
T/C (endpoint: median survival time, dose: 0.5 mg/kg/injection, schedule: Q01DX009 (ip), vehicle: saline, higher = longer survival): 94 % of control

NCCCNCCSP(=O)(O)O
T/C (endpoint: median survival time, dose: 300.0 mg/kg/injection, schedule: Q01DX001 (ip), vehicle: saline, higher = longer survival): 93 % of control and 100 % of control
T/C (endpoint: median survival time, dose: 500.0 mg/kg/injection, schedule: Q01DX001 (ip), vehicle: saline, higher = longer survival): 77 % of control and 78 % of control

O=C1C=CC(=O)c2c(Cl)ccc(O)c21
T/C [4]: 100 % of control
T/C [1]: 104 % of control
T/C [2]: 102 % of control
T/C [3]: 98 % of control

NC(=O)c1csc(C2OC(CO)C(O)C2O)n1 (centres undefined)
T/C (endpoint: median survival time, dose: 18.75 mg/kg/injection, schedule: Q01DX009 (ip), vehicle: water, higher = longer survival): 190 % of control and 235 % of control
T/C (endpoint: median survival time, dose: 37.5 mg/kg/injection, schedule: Q01DX009 (ip), vehicle: water, higher = longer survival): 190 % of control and 235 % of control
T/C (endpoint: median survival time, dose: 75.0 mg/kg/injection, schedule: Q01DX009 (ip), vehicle: water, higher = longer survival): 190 % of control and 235 % of control
T/C (endpoint: median survival time, dose: 150.0 mg/kg/injection, schedule: Q01DX009 (ip), vehicle: water, higher = longer survival): 190 % of control and 235 % of control
T/C (endpoint: median survival time, dose: 300.0 mg/kg/injection, schedule: Q01DX009 (ip), vehicle: water, higher = longer survival): 190 % of control and 235 % of control
T/C (endpoint: median survival time, dose: 600.0 mg/kg/injection, schedule: Q01DX009 (ip), vehicle: water, higher = longer survival): 190 % of control and 235 % of control

Cc1ccc(NC(=O)N(CCCl)N=O)cc1NC(=O)N(CCCl)N=O
T/C (endpoint: median survival time, dose: 3.12 mg/kg/injection, schedule: Q01DX009 (ip), vehicle: other, higher = longer survival): 93 % of control
T/C (endpoint: median survival time, dose: 6.25 mg/kg/injection, schedule: Q01DX009 (ip), vehicle: other, higher = longer survival): 87 % of control

COc1cccc2c1C(=O)c1c(O)c3c(c(O)c1C2=O)C[C@@](O)(C(C)=O)C[C@@H]3OC1CC(N)C(O)C(C)O1 (some centres undefined)
T/C (endpoint: mean tumor weight, dose: 0.6 mg/kg/injection, schedule: Q01DX011 (ip), vehicle: saline, higher = larger tumour): 85 % of control
T/C (endpoint: mean tumor weight, dose: 1.0 mg/kg/injection, schedule: Q01DX011 (sc), vehicle: steriod suspending solution, higher = larger tumour): 116 % of control
T/C (endpoint: mean tumor weight, dose: 1.2 mg/kg/injection, schedule: Q01DX011 (ip), vehicle: saline, higher = larger tumour): 89 % of control
T/C (endpoint: mean tumor weight, dose: 1.8 mg/kg/injection, schedule: Q01DX011 (ip), vehicle: saline, higher = larger tumour): 69 % of control and 81 % of control
T/C (endpoint: mean tumor weight, dose: 2.7 mg/kg/injection, schedule: Q01DX011 (ip), vehicle: saline, higher = larger tumour): 56 % of control
T/C (endpoint: mean tumor weight, dose: 5.0 mg/kg/injection, schedule: Q01DX011 (sc), vehicle: steriod suspending solution, higher = larger tumour): 81 % of control
T/C (endpoint: median survival time, dose: 0.12 mg/kg/injection, schedule: Q01DX009 (ip), vehicle: saline, higher = longer survival): 101 % of control and 104 % of control and 110 % of control
T/C (endpoint: median survival time, dose: 125.0 micrograms/kg/injection, schedule: Q01DX009 (ip), vehicle: saline, higher = longer survival): 92 % of control
T/C (endpoint: median survival time, dose: 500.0 micrograms/kg/injection, schedule: Q01DX009 (ip), vehicle: saline, higher = longer survival): 100 % of control
T/C (endpoint: median survival time, dose: 1000.0 micrograms/kg/injection, schedule: Q01DX009 (ip), vehicle: saline, higher = longer survival): 90 % of control
T/C (endpoint: median survival time, dose: 2000.0 micrograms/kg/injection, schedule: Q01DX009 (ip), vehicle: saline, higher = longer survival): 97 % of control

O=NN(CCCl)C(=O)NC1CCC(NC(=O)N(CCCl)N=O)CC1 (centres undefined)
T/C (endpoint: median survival time, dose: 30.0 mg/kg/injection, schedule: Q04DX004 (ip), vehicle: saline with Tween-80, higher = longer survival): 123 % of control
T/C (endpoint: median survival time, dose: 45.0 mg/kg/injection, schedule: Q01DX001 (ip), vehicle: saline with Tween-80, higher = longer survival): 109 % of control
T/C (endpoint: median survival time, dose: 45.0 mg/kg/injection, schedule: Q04DX004 (ip), vehicle: saline with Tween-80, higher = longer survival): 156 % of control
T/C (endpoint: median survival time, dose: 75.0 mg/kg/injection, schedule: Q04DX004 (ip), vehicle: saline with Tween-80, higher = longer survival): 104 % of control and 122 % of control
T/C (endpoint: median survival time, dose: 84.0 mg/kg/injection, schedule: Q01DX001 (ip), vehicle: saline with Tween-80, higher = longer survival): 174 % of control
T/C (endpoint: median survival time, dose: 90.0 mg/kg/injection, schedule: Q07DX002 (ip), vehicle: saline with Tween-80, higher = longer survival): 117 % of control and 222 % of control
T/C (endpoint: median survival time, dose: 120.0 mg/kg/injection, schedule: Q07DX002 (ip), vehicle: saline with Tween-80, higher = longer survival): 116 % of control
T/C (endpoint: median survival time, dose: 150.0 mg/kg/injection, schedule: Q07DX002 (ip), vehicle: saline with Tween-80, higher = longer survival): 105 % of control
T/C (endpoint: median survival time, dose: 171.0 mg/kg/injection, schedule: Q01DX001 (ip), vehicle: saline with Tween-80, higher = longer survival): 179 % of control
T/C (endpoint: median survival time, dose: 255.0 mg/kg/injection, schedule: Q01DX001 (ip), vehicle: saline with Tween-80, higher = longer survival): 112 % of control
T/C (endpoint: median tumor weight (est.), dose: 30.0 mg/kg/injection, schedule: Q01DX001 (ip), vehicle: saline with Tween-80, higher = larger tumour): 88 % of control
T/C (endpoint: median tumor weight (est.), dose: 45.0 mg/kg/injection, schedule: Q01DX001 (ip), vehicle: saline with Tween-80, higher = larger tumour): 121 % of control
T/C (endpoint: median tumor weight (est.), dose: 67.0 mg/kg/injection, schedule: Q01DX001 (ip), vehicle: saline with Tween-80, higher = larger tumour): 64 % of control
T/C (endpoint: median tumor weight (est.), dose: 101.0 mg/kg/injection, schedule: Q01DX001 (ip), vehicle: saline with Tween-80, higher = larger tumour): 83 % of control
T/C (endpoint: median tumor weight (est.), dose: 152.0 mg/kg/injection, schedule: Q01DX001 (ip), vehicle: saline with Tween-80, higher = larger tumour): 23 % of control
